Patent US7759510B2, “Platinum complexes and methods of use” (University of South Florida, priority 2003, dated 2010)
Entries after “also recorded” stand apart in the source; their conditions may differ. Where two headings read alike, the source gives them in different places.

Tests used:
Stat3 [1] = target: T1, Stat3 (Mus musculus, UniProt P42227); assay: EMSA of nuclear extracts, Stat3 DNA-binding activity to hSIE probe; type: biochemical; conditions: in vitro
T1 construct: Nuclear extracts were prepared from NIH3T3/hEGFR cell that overexpress human epidermal growth factor (EGF) receptor and stimulated with EGF; endogenous in cells; host or cells: NIH3T3/hEGFR fibroblasts, EGF-stimulated (6 ng/ml, 15 min), nuclear extract
T1 sequence (P42227 whole entry): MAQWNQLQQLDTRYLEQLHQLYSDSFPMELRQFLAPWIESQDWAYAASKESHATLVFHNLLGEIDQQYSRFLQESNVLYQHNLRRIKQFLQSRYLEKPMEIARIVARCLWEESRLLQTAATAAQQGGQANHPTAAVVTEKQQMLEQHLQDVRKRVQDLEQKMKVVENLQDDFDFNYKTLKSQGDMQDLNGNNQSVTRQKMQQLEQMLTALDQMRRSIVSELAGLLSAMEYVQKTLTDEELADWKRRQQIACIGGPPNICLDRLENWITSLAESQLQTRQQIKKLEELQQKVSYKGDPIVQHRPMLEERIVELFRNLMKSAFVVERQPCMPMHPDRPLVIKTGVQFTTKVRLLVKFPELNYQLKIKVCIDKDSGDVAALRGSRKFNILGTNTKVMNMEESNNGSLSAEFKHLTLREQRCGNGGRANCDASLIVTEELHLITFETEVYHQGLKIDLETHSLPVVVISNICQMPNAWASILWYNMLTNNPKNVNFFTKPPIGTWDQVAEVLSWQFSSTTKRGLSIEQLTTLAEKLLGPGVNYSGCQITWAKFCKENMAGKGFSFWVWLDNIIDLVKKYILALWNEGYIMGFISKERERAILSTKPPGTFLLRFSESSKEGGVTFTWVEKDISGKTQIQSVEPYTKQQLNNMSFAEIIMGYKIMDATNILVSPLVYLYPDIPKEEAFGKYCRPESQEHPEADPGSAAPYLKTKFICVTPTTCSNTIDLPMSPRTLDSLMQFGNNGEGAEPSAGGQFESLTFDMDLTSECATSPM
Experimental: Nuclear Extract Preparation and Analysis by EMSA of HK-Designated Platinum Complexes.
Nuclear extracts were prepared from NIH3T3/hEGFR cell that overexpress human epidermal growth factor (EGF) receptor and stimulated with EGF (6 ng/ml) for 15 min. Nuclear extracts were pre-incubated with compounds for 30 min at room temperature prior to incubation with radiolabeled probe. The ^32P-labeled oligonucleotide probe used is hSIE (high affinity sis-inducible element, m67 variant, 5′-[…]-3′) (SEQ ID NO:1) that binds both Stat1 and Stat3.
Other platinum (IV) complexes were evaluated for inhibitory activity against STAT DNA-binding in vitro.

Stat3 [2] = assay: Stat3 signaling, growth inhibition and apoptosis in cells that contain constitutive Stat3 activity; type: cell-based; conditions: Src-transformed mouse fibroblasts, human tumor cells of the breast, prostate, mouse melanoma cells
From the text: Methods of the invention comprise inhibiting function of a STAT by contacting a cell expressing a STAT with a platinum complex of the invention wherein the complex is taken in or otherwise provided inside the cell. Platinum complexes of the invention can physically interact with the DNA-binding domain of Stat3 and thereby disrupts its ability to bind to DNA.

[3] = Reduction of CPA-7 platinum complex by glutathione (UV kinetics at 226 nm); type: physicochemical; conditions: 20 μm CPA-7 in PBS/20% DMSO with 10 mM glutathione
Experimental: FIGS. 5A-C show inertness of CPA-7 platinum complex to reduction by glutathione. 20 μm CPA-7 in PBS/20% DMSO with […]. […] Reduction is attributed to room light.
FIGS. 5A-C show the inertness of CPA-7 to glutathione reduction. In the figures, 20 μm CPA-7 was added in PBS/20% DMSO with 10 mM glutathione. The readings were initiated in late evening where data points were collected every 10 minutes at the lambda max for CPA-7, 226 nm. […] Data was collected on a Varian Cary 50 fitted with a fibreoptic probe in the kinetics mode. The Cary 50 uses a pulsed Xenon lamp with discontinuous irradiation between readings. A 25-mL volumetric flask was used for the solution with a magnetic stirring bar at slow speed.

A549 cells = assay: MTT assay, percent survival of A549 cells; type: cell-based; conditions: A549; for IC50: Table 2, read-out: Calculated IC 50 (uM concentration)
Experimental: 1. Prepare a suspension of A549 cells at 2×10^5 cells per mL in supplemented DMEM/F12 growth medium.
2. Plate 2×10^4 cells per well in a 96 well cell culture plate by adding 100 μL of stock suspension to each well.
3. For each platinum compound (already in solution), prepare a readily usable stock solution in DMEM/F12 medium.
4. For each compound generate triplicate trials of 0, 10, 20, 30, 40, 50, 60, and 70 μM concentration. This is achieved in situ by adding appropriate volumes of stock solution to each well along with the volume of untreated medium necessary to generate the desired concentration in a final volume of 200 μL.
5. Gently agitate plates to mix contents. Incubate at 37° C., 7% CO2 for 45 hours.
6. Add 20 μL of 5 mg/mL MTT solution (in PBS) to each well.
7. Gently agitate plates to mix contents and incubate an additional 3 hours to allow product development.
8. Remove plates from incubator and agitate to cause settling of formazan product.
9. Aspirate out liquid contents of each well using needle and syringe and discard.
10. Add 200 μL DMSO to each well to dissolve formazan product.
11. Agitate plates until all of the formazan product is in solution and no purple crystals remain on the bottom surface of the wells.
12. Read the absorbance of each well at […] using Varian software for Cary 50 UV-vis Spectrophotometer with fiber optic probe accessory.
(§1) MTT assays are used for the quantitative determination of cellular proliferation and activation and for the quantitation of in vitro tumor cell sensitivity to anti-cancer compounds. The assay is based on the cleavage of the yellow tetrazolium salt MTT into purple colored formazan by metabolically active cells. Solubilized formazan product can be photometrically quantitated using an ELISA plate reader. A decrease in the number of living cells results in a decrease in total metabolic activity which leads to a decrease in color formation. Platinum complexes of the present invention were tested in MTT assays using A549 cells to determine anti-cancer cell activity. […] FIGS. 1, 2, and 4 show percent survival versus platinum complex concentration in graphical form.
as §1, with “FIGS. 8, 9,” for “FIGS. 1, 2,”, “and 11” for “and 4”

[4] = extrapolated from incomplete data (10-40 uM; CPA-31 10-30 μM), outside the measured range

SMILES | Disruption of Stat3 activity / ability to bind its consensus binding sequence (Stat3 [1]) | Average Absorbance (A549 cells; Table 1, 10 μM) | Percent Survival (A549 cells; Table 1, 10 μM) [%] | Average Absorbance (A549 cells; Table 1, 20 μM) | Percent Survival (A549 cells; Table 1, 20 μM) [%] | Average Absorbance (A549 cells; Table 1, 30 μM) | Percent Survival (A549 cells; Table 1, 30 μM) [%] | Average Absorbance (A549 cells; Table 1, 40 μM) | Percent Survival (A549 cells; Table 1, 40 μM) [%] | Average Absorbance (A549 cells; Table 3, 10 μM) | Percent Survival (A549 cells; Table 3, 10 μM) [%] | Average Absorbance (A549 cells; Table 3, 20 μM) | Percent Survival (A549 cells; Table 3, 20 μM) [%] | Average Absorbance (A549 cells; Table 3, 30 μM) | Percent Survival (A549 cells; Table 3, 30 μM) [%] | Average Absorbance (A549 cells; Table 3, 40 μM) | Percent Survival (A549 cells; Table 3, 40 μM) [%] | Average Absorbance (A549 cells; Table 3, 50 μM) | Percent Survival (A549 cells; Table 3, 50 μM) [%] | Average Absorbance (A549 cells; Table 3, 60 μM) | further results
[NH2][Pt]([NH2])([Cl])([Cl])([Cl])[N+](=O)[O-] [CPA-7] | strongly disrupt Stat3 activity | – | – | – | – | – | – | – | – | – | – | – | – | – | – | – | – | – | – | – | Cell growth inhibition and apoptosis (Stat3 [2]): induce cell growth inhibition and apoptosis; Stat3 signaling function (Stat3 [2]): abrogate Stat3 signaling function; Reduction by glutathione (GSH) [3]: stability against GSH reduction; also recorded: not appreciably reduced by GSH; Sensitivity to light (reduction by room light) [3]: sensitivity to light
O=[N+]([O-])[Pt]1([Cl])([Cl])([Cl])[NH]CC[NH]1 [CPA-1] | – | – | – | – | – | – | – | – | – | – | – | – | – | – | – | – | – | – | – | – | Cell growth inhibition and apoptosis (Stat3 [2]): induce cell growth inhibition and apoptosis; Stat3 signaling function (Stat3 [2]): abrogate Stat3 signaling function
[NH2][Pt]([NH2])([Cl])([Cl])([N]1C(=O)CC(C(=O)O)NC1=O)[N+](=O)[O-] (centres unmarked) [CPA-55] | strongly disrupt Stat3 activity | 2.4481 | 103.6847 | 2.3731 | 100.5082 | 2.3268 | 98.5473 | 1.3780 | 58.3626 | 2.4587 | 100.6468 | 2.4875 | 101.8257 | 1.6902 | 69.1883 | 0.6503 | 26.6200 | 0.4894 | 20.0336 | 0.7082 | IC50 (A549 cells; [4]): 54.2 µM; Percent Survival (A549 cells; Table 3, 60 μM): 28.9901%; Average Absorbance (A549 cells; Table 3, 70 μM): 0.5733; Percent Survival (A549 cells; Table 3, 70 μM): 23.4680%
[NH2][Pt]([NH2])([Cl])([Cl])[N+](=O)[O-].c1ccc(-c2oc(-c3ccccc3)c3ccccc23)cc1 [CPA-41] | strongly disrupt Stat3 activity | 2.3706 | 100.4024 | 2.3827 | 100.9148 | 2.1124 | 89.4668 | 0.8648 | 36.6270 | 2.4500 | 100.2906 | 2.3805 | 97.4457 | 1.4686 | 60.1171 | 0.4210 | 17.2336 | 0.3647 | 14.9290 | 0.5549 | IC50 (A549 cells; [4]): 40.7 µM; Percent Survival (A549 cells; Table 3, 60 μM): 22.7148%; Average Absorbance (A549 cells; Table 3, 70 μM): 0.5445; Percent Survival (A549 cells; Table 3, 70 μM): 22.2891%
CCN(CC)c1ccc2c(-c3ccccc3C(=O)O)c3ccc(=[N+](CC)CC)cc-3[o+]([Pt]([NH2])([NH2])([Cl])([Cl])[N+](=O)[O-])c2c1.[Cl-] [CPA-46] | strongly disrupt Stat3 activity | 2.4032 | 101.7831 | 2.2978 | 97.3190 | 2.2671 | 96.0188 | 1.8618 | 78.8531 | 2.5773 | 105.5017 | 2.4118 | 98.7269 | 1.9637 | 80.3840 | 1.2044 | 49.3021 | 0.6282 | 25.7153 | 0.6446 | Average Absorbance (A549 cells; Table 1, 50 μM): 1.0285; Percent Survival (A549 cells; Table 1, 50 μM): 43.5602%; Average Absorbance (A549 cells; Table 1, 60 μM): 0.7041; Percent Survival (A549 cells; Table 1, 60 μM): 29.8208%; IC50 (A549 cells; linear trend from percent survival vs. concentration data of Table 1): 52.9 µM; Percent Survival (A549 cells; Table 3, 60 μM): 26.3867%; Average Absorbance (A549 cells; Table 3, 70 μM): 0.6165; Percent Survival (A549 cells; Table 3, 70 μM): 25.2364%
